{"source": "patent US20160151337A1", "about": "“ANNELATED PYRROLES AND THEIR USE AS CRAC INHIBITORS” (Grünenthal GmbH, priority 2013, published 2016)", "key": {"CRAC channel": {"target": "T1, CRAC channel (Homo sapiens, UniProt Q96D31)", "T1 construct": "endogenous in cells; host or cells: HEK293 (ECACC), untransfected", "T1 sequence (Q96D31 whole entry)": "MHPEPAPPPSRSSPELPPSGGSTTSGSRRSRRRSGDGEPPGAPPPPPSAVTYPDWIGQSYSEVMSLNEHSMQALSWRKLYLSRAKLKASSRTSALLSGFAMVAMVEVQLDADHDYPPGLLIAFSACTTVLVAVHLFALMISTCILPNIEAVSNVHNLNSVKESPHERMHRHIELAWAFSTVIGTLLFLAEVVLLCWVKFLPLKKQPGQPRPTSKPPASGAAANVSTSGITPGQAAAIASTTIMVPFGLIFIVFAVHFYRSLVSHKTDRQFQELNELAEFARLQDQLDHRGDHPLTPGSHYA", "experiment": "HEK Calcium Influx Assay (FLIPR), inhibition of store-operated Ca2+ entry after thapsigargin store depletion", "assay_type": "cell-based", "details": "10 μM compound, HEK293 cells, read-out: % inhib. [@ 10 μM] FLIPR", "outline": "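HEK293 cells loaded with Calcium-4 dye in Ca2+-free HBS (pH 7.4), stores depleted with 2 μM thapsigargin for 10 min (100 μM EGTA); after 3 mM CaCl2 re-addition and 15 min steady-state, compounds added and FLIPR signal averaged 9.5–10 min post-dose. IC50 from 8-point 1:3.16 dilutions from 10 μM, normalised to DMSO and non-depleted wells.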"}, "[1]": {"test_system": "Interleukin-2 (IL-2) production/release in Jurkat T cells", "experiment": "Jurkat IL-2 Production Assay (PHA-stimulated, IL-2 AlphaLisa)", "assay_type": "cell-based", "details": "Homo sapiens, PHA 15 μg/ml, 22 h, inhibition of IL-2 production", "outline": "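Jurkat E6-1 cells (5*10^5/well, DMEM/F12 with 10% FCS) pretreated 30 min with compound, then stimulated 22 h with 15 μg/ml PHA at 37 °C. IC50 from 8-point 1:3.16 dilution starting at 10 μM.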"}}}
{"smiles": "Cc1cc(CS(C)(=O)=O)ncc1N1CCc2[nH]c(-c3c(F)cccc3F)cc2C1", "note": "[Example 104, 2-(2,6-Difluoro-phenyl)-5-[4-methyl-6-(methylsulfonyl-methyl)-pyridin-3-yl]-4,5,6,7-tetrahydro-1H-pyrrolo[3,2-c]pyridine]", "values": [{"measurement": "inhibition at 10 µM", "setting": "CRAC channel", "value": "> 70", "unit": "%"}, {"measurement": "IC50", "setting": "[1]", "value": "1 to 5", "unit": "µM"}]}
{"smiles": "CCn1nc(C(F)(F)F)cc1N1CCc2[nH]c(-c3c(F)cccc3F)cc2C1", "note": "[Example 130, 2-(2,6-Difluoro-phenyl)-5-[2-ethyl-5-(trifluoromethyl)-2H-pyrazol-3-yl]-4,5,6,7-tetrahydro-1H-pyrrolo[3,2-c]pyridine]", "values": [{"measurement": "inhibition at 10 µM", "setting": "CRAC channel", "value": "> 70", "unit": "%"}, {"measurement": "IC50", "setting": "[1]", "value": "< 0.5", "unit": "µM"}]}
{"smiles": "Cc1cc(S(C)(=O)=O)ncc1N1CCc2[nH]c(-c3ccncc3Cl)cc2C1", "note": "[Example 108, 2-(3-Chloro-pyridin-4-yl)-5-(4-methyl-6-methylsulfonyl-pyridin-3-yl)-4,5,6,7-tetrahydro-1H-pyrrolo[3,2-c]pyridine]", "values": [{"measurement": "inhibition at 10 µM", "setting": "CRAC channel", "value": "< 50", "unit": "%"}, {"measurement": "IC50", "setting": "[1]", "value": "0.5 to 1", "unit": "µM"}]}
{"smiles": "Cc1cc(S(C)(=O)=O)c(F)cc1N1CCc2[nH]c(-c3c(F)cccc3F)cc2C1", "note": "[Example 101, 2-(2,6-Difluoro-phenyl)-5-(5-fluoro-2-methyl-4-methylsulfonyl-phenyl)-4,5,6,7-tetrahydro-1H-pyrrolo[3,2-c]pyridine]", "values": [{"measurement": "inhibition at 10 µM", "setting": "CRAC channel", "value": "> 70", "unit": "%"}, {"measurement": "IC50", "setting": "[1]", "value": "< 0.5", "unit": "µM"}]}
{"smiles": "Cc1sc(S(C)(=O)=O)nc1N1CCc2[nH]c(-c3c(F)cccc3F)cc2C1", "note": "[Example 133, 4-[2-(2,6-Difluoro-phenyl)-4,5,6,7-tetrahydro-1H-pyrrolo[3,2-c]pyridin-5-yl]-5-methyl-2-methylsulfonyl-thiazole]", "values": [{"measurement": "inhibition at 10 µM", "setting": "CRAC channel", "value": "> 70", "unit": "%"}, {"measurement": "IC50", "setting": "[1]", "value": "0.5 to 1", "unit": "µM"}]}
{"smiles": "Cc1nc(C#N)ccc1N1CCc2[nH]c(-c3c(F)cccc3F)cc2C1", "note": "[Example 77, 5-[2-(2,6-Difluoro-phenyl)-4,5,6,7-tetrahydro-1H-pyrrolo[3,2-c]pyridin-5-yl]-6-methyl-pyridine-2-carbonitrile]", "values": [{"measurement": "inhibition at 10 µM", "setting": "CRAC channel", "value": "> 70", "unit": "%"}, {"measurement": "IC50", "setting": "[1]", "value": "1 to 5", "unit": "µM"}]}
{"smiles": "Cc1cc(C(F)(F)F)ncc1N1CCc2[nH]c(C3CCCOC3)cc2C1", "note": "(stereo not drawn) [Example 134, 5-[4-Methyl-6-(trifluoromethyl)-pyridin-3-yl]-2-tetrahydro-pyran-3-yl-4,5,6,7-tetrahydro-1H-pyrrolo[3,2-c]pyridine]", "values": [{"measurement": "inhibition at 10 µM", "setting": "CRAC channel", "value": "> 70", "unit": "%"}, {"measurement": "IC50", "setting": "[1]", "value": "1 to 5", "unit": "µM"}]}
{"smiles": "CCCCc1cc2c([nH]1)CCN(c1cnc(S(C)(=O)=O)cc1C)C2", "note": "[Example 74, 2-Butyl-5-(4-methyl-6-methylsulfonyl-pyridin-3-yl)-4,5,6,7-tetrahydro-1H-pyrrolo[3,2-c]pyridine]", "values": [{"measurement": "inhibition at 10 µM", "setting": "CRAC channel", "value": "> 70", "unit": "%"}, {"measurement": "IC50", "setting": "[1]", "value": "1 to 5", "unit": "µM"}]}
{"smiles": "Cc1cc(S(=O)(=O)N2CCC2)ccc1N1CCc2[nH]c(-c3c(F)cccc3F)cc2C1", "note": "[Example 109, 5-[4-(Azetidin-1-ylsulfonyl)-2-methyl-phenyl]-2-(2,6-difluoro-phenyl)-4,5,6,7-tetrahydro-1H-pyrrolo[3,2-c]pyridine]", "values": [{"measurement": "inhibition at 10 µM", "setting": "CRAC channel", "value": "< 50", "unit": "%"}, {"measurement": "IC50", "setting": "[1]", "value": "< 0.5", "unit": "µM"}]}
{"smiles": "Cc1nc(N2CCc3[nH]c(-c4c(F)cccc4F)cc3C2)ccc1Br", "note": "[Example 25, 5-(5-Bromo-6-methyl-pyridin-2-yl)-2-(2,6-difluoro-phenyl)-4,5,6,7-tetrahydro-1H-pyrrolo[3,2-c]pyridine]", "values": [{"measurement": "inhibition at 10 µM", "setting": "CRAC channel", "value": "< 50", "unit": "%"}, {"measurement": "IC50", "setting": "[1]", "value": "1 to 5", "unit": "µM"}]}
{"smiles": "Cc1cc(S(=O)(=O)N2CCCCC2)ccc1N1CCc2[nH]c(-c3c(F)cccc3F)cc2C1", "note": "[Example 119, 2-(2,6-Difluoro-phenyl)-5-[2-methyl-4-(piperidin-1-ylsulfonyl)-phenyl]-4,5,6,7-tetrahydro-1H-pyrrolo[3,2-c]pyridine]", "values": [{"measurement": "inhibition at 10 µM", "setting": "CRAC channel", "value": "< 50", "unit": "%"}, {"measurement": "IC50", "setting": "[1]", "value": "1 to 5", "unit": "µM"}]}
{"smiles": "Cc1sc(-c2ccccc2)nc1N1CCc2[nH]c(-c3c(F)cccc3F)cc2C1", "note": "[Example 23, 4-[2-(2,6-Difluoro-phenyl)-4,5,6,7-tetrahydro-1H-pyrrolo[3,2-c]pyridin-5-yl]-5-methyl-2-phenyl-thaizole]", "values": [{"measurement": "inhibition at 10 µM", "setting": "CRAC channel", "value": "< 50", "unit": "%"}, {"measurement": "IC50", "setting": "[1]", "value": "1 to 5", "unit": "µM"}]}
{"smiles": "Cc1cc(S(C)(=O)=O)ccc1N1CCc2[nH]c(-c3c(F)cccc3F)cc2C1", "note": "[Example 88, 2-(2,6-Difluoro-phenyl)-5-(2-methyl-4-methylsulfonyl-phenyl)-4,5,6,7-tetrahydro-1H-pyrrolo[3,2-c]pyridine]", "values": [{"measurement": "inhibition at 10 µM", "setting": "CRAC channel", "value": "50 to 70", "unit": "%"}, {"measurement": "IC50", "setting": "[1]", "value": "< 0.5", "unit": "µM"}]}
{"smiles": "Cc1cc(S(C)(=O)=O)ncc1N1CCc2[nH]c(-c3ccc(F)cc3F)cc2C1", "note": "[Example 78, 2-(2,4-Difluoro-phenyl)-5-(4-methyl-6-methylsulfonyl-pyridin-3-yl)-4,5,6,7-tetrahydro-1H-pyrrolo[3,2-c]pyridine]", "values": [{"measurement": "inhibition at 10 µM", "setting": "CRAC channel", "value": "> 70", "unit": "%"}, {"measurement": "IC50", "setting": "[1]", "value": "0.5 to 1", "unit": "µM"}]}
{"smiles": "Cc1cc(S(C)(=O)=O)ncc1N1CCc2[nH]c(-c3c(F)cccc3F)c(Br)c2C1", "note": "[Example 91, 3-Bromo-2-(2,6-difluoro-phenyl)-5-(4-methyl-6-methylsulfonyl-pyridin-3-yl)-4,5,6,7-tetrahydro-1H-pyrrolo[3,2-c]pyridine]", "values": [{"measurement": "inhibition at 10 µM", "setting": "CRAC channel", "value": "50 to 70", "unit": "%"}, {"measurement": "IC50", "setting": "[1]", "value": "1 to 5", "unit": "µM"}]}
